{
  "source": "patent US6602296B1",
  "about": "“Chemical supplementation of bone” (The University of Western Australia, priority 1997, dated 2003)",
  "key": {"[1]": {"experiment": "Antibiotic iontophoresis in sheep tibia, antibiotic concentration in bone samples", "details": "1% solution, 100 volts", "procedure": "Quantitative analysis was then carried out to test iontophoresis as a means of antibiotic delivery in allograft bone. Specimens of sheep tibia were prepared as described above. […] A potential difference of 100 volts was applied for 1 minute, 5 minutes or 10 minutes with controls being set up the same way for 10 minutes except no potential difference was applied. A recording of current passed for each specimen was made.\nEach sample was then washed in water and dried. Samples from 10 the endosteal and periosteal surfaces were then taken by drilling the bone using a 3 mm low speed drill, in 10 positions on each surface, and crushed to a fine powder. To a known mass of each sample was added distilled water (2 ml) and the sample agitated using ultrasound. The sample was then centrifuged and the supernatant removed and the process repeated a further 2 times. The last wash was left to soak for 12 hours before centrifuging. […] The supernatant solutions were then analysed for antibiotic content; for gentamicin using Fluorescence Polarisation Immuno Assay (Abbot Axsym Analyser); and for flucloxacillin the assays were performed using High Performance Liquid Chromatography (HPLC) technique. From the levels in the supernatant solutions, the antibiotic concentrations in the bone samples were calculated. […]"}, "Staphylococcus aureus": {"test_system": "Staphylococcus aureus", "details": "varies with different phage types; cited from earlier work"}},
  "data": [
    {"substance": "gentamicin Sulphate", "values": [
      {"measurement": "plateau level in endosteal and periosteal specimens", "setting": "[1]", "value": "about 150 mg/Kg"},
      {"measurement": "minimum inhibitory concentration", "setting": "Staphylococcus aureus", "value": "approximately 0.25 mg/L"}
    ]}
  ]
}
